Read-outs that look alike come from different tables or passages of the source.
What was measured:
Format in all cases: cell-based
hKv1.3 = hKv1.3 (Homo sapiens, UniProt P22001); assay: cell-based; conditions: Kv1.3 (IWQ) IC50 (nM, Avg)
[1] = tested on: IL-2 secretion from T cells in human whole blood; conditions: read-out: WB (IL-2) IC50 (nM, Avg)
[2] = tested on: IFN-g secretion from T cells in human whole blood
[3] = read-out: WB (IFNg) IC50 (nM, Avg)

hKv1.3, sequence (P22001 whole entry): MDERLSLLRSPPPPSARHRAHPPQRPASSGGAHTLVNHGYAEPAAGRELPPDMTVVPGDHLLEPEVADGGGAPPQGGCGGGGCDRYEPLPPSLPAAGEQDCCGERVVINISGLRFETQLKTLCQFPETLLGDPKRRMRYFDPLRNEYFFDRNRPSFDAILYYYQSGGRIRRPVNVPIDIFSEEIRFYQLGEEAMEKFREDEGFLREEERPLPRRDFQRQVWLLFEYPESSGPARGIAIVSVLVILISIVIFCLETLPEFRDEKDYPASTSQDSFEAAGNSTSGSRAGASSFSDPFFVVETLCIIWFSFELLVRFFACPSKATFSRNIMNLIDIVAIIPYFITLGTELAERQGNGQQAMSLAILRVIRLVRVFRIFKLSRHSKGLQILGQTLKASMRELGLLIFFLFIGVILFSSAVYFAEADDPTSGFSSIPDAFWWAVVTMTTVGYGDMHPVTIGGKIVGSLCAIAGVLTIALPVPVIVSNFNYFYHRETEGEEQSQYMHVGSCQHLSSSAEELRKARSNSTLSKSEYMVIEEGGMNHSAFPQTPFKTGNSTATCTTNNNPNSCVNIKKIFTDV

SMILES	IC50 (hKv1.3) [nM]	IC50 [1] [nM]	IC50 [2, 3] [nM]	IC50 ([2]; read-out: WB (IFNg) IC5- (nM, Avg)) [nM]
CC[C@H](C)[C@@H]1NC(=O)[C@@H](NC(=O)[C@H](CO)NC(=O)[C@@H](N)CCCNC(=N)N)CSSC[C@@H](C(N)=O)NC(=O)[C@H]([C@@H](C)O)NC(=O)CNC(=O)[C@@H]2CSSC[C@@H]3NC(=O)[C@H](CCCCN)NC(=O)[C@H](Cc4ccccc4)NC(=O)[C@H](C)NC(=O)[C@H]([C@@H](C)O)NC(=O)[C@H](CSSC[C@H](NC(=O)[C@H](Cc4ccccc4)NC(=O)[C@H](CO)NC(=O)[C@H](CC(C)C)NC(=O)[C@H](CCCNC(=N)N)NC(=O)[C@H](Cc4ccc(O)cc4)NC(=O)[C@H](CCCCN)NC(=O)[C@H](CC(C)C)NC(=O)[C@H](CO)NC(=O)[C@H](Cc4c[nH]cn4)NC(=O)[C@H](CCCCN)NC3=O)C(=O)N[C@@H](CCCNC(=N)N)C(=O)N[C@@H](CCCCN)C(=O)N[C@@H]([C@@H](C)O)C(=O)N2)NC(=O)[C@H](CCCNC(=N)N)NC(=O)[C@H](CO)NC(=O)[C@H](CCCCN)NC(=O)[C@@H]2CCCN2C(=O)[C@H]([C@@H](C)CC)NC(=O)[C@H]([C@@H](C)O)NC(=O)[C@H](CC(=O)O)NC1=O [[Lys16, Leu21]ShK-amide]	0.213	0.889	0.636	–
CC[C@H](C)[C@@H]1NC(=O)[C@@H](NC(=O)[C@H](CO)NC(=O)[C@@H](N)CCCNC(=N)N)CSSC[C@@H](C(=O)O)NC(=O)[C@H]([C@@H](C)O)NC(=O)CNC(=O)[C@@H]2CSSC[C@@H]3NC(=O)[C@H](CCC(N)=O)NC(=O)[C@H](Cc4ccccc4)NC(=O)[C@H](C)NC(=O)[C@H]([C@@H](C)O)NC(=O)[C@H](CSSC[C@H](NC(=O)[C@H](Cc4ccccc4)NC(=O)[C@H](CO)NC(=O)[C@H](C)NC(=O)[C@H](CCCNC(=N)N)NC(=O)[C@H](Cc4ccc(O)cc4)NC(=O)[C@H](CCCCN)NC(=O)[C@H](CCSC)NC(=O)[C@H](CO)NC(=O)[C@H](Cc4c[nH]cn4)NC(=O)[C@H](CCCCN)NC3=O)C(=O)N[C@@H](CCCNC(=N)N)C(=O)N[C@@H](CCCCN)C(=O)N[C@@H]([C@@H](C)O)C(=O)N2)NC(=O)[C@H](CCCNC(=N)N)NC(=O)[C@H](CO)NC(=O)[C@H](CCCCN)NC(=O)[C@@H]2CCCN2C(=O)[C@H]([C@@H](C)CC)NC(=O)[C@H]([C@@H](C)O)NC(=O)[C@H](CC(=O)O)NC1=O [[Ala25]ShK]	0.116	0.195	0.408	–
CC[C@H](C)[C@@H]1NC(=O)[C@@H](NC(=O)[C@H](CO)NC(=O)[C@H](C)N)CSSC[C@@H](C(=O)O)NC(=O)[C@H]([C@@H](C)O)NC(=O)CNC(=O)[C@@H]2CSSC[C@@H]3NC(=O)[C@H](CCC(N)=O)NC(=O)[C@H](Cc4ccccc4)NC(=O)[C@H](C)NC(=O)[C@H]([C@@H](C)O)NC(=O)[C@H](CSSC[C@H](NC(=O)[C@H](Cc4ccccc4)NC(=O)[C@H](CO)NC(=O)[C@H](CC(C)C)NC(=O)[C@H](CCCNC(=N)N)NC(=O)[C@H](Cc4ccc(O)cc4)NC(=O)[C@H](CCCCN)NC(=O)[C@H](CCSC)NC(=O)[C@H](CO)NC(=O)[C@H](Cc4c[nH]cn4)NC(=O)[C@H](CCCCN)NC3=O)C(=O)N[C@@H](CCCNC(=N)N)C(=O)N[C@@H](CCCCN)C(=O)N[C@@H]([C@@H](C)O)C(=O)N2)NC(=O)[C@H](CCCNC(=N)N)NC(=O)[C@H](CO)NC(=O)[C@H](CCCCN)NC(=O)[C@@H]2CCCN2C(=O)[C@H]([C@@H](C)CC)NC(=O)[C@H]([C@@H](C)O)NC(=O)[C@H](CC(=O)O)NC1=O [[Ala1]ShK]	0.168	0.073	0.102	–
CCCC[C@@H]1NC(=O)[C@H](CO)NC(=O)[C@H](Cc2c[nH]cn2)NC(=O)[C@H](CCCCN)NC(=O)[C@@H]2CSSC[C@@H]3NC(=O)[C@H]([C@@H](C)O)NC(=O)[C@H](CCCCN)NC(=O)[C@H](CCCNC(=N)N)NC(=O)[C@H](CSSC[C@H](NC(=O)[C@H](CCCNC(=N)N)NC(=O)[C@H](CO)NC(=O)[C@H](CCCCN)NC(=O)[C@@H]4CCCN4C(=O)[C@H]([C@@H](C)CC)NC(=O)[C@H]([C@@H](C)O)NC(=O)[C@H](CC(=O)O)NC(=O)[C@H](CCC(=O)O)NC(=O)[C@@H](NC(=O)[C@H](CO)NC(=O)[C@@H](N)CCCNC(=N)N)CSSC[C@@H](C(N)=O)NC(=O)[C@H]([C@@H](C)O)NC(=O)CNC3=O)C(=O)N[C@@H]([C@@H](C)O)C(=O)N[C@@H](C)C(=O)N[C@@H](C)C(=O)N[C@@H](CCCCN)C(=O)N2)NC(=O)[C@H](Cc2ccccc2)NC(=O)[C@H](CO)NC(=O)[C@H](CC(C)C)NC(=O)[C@H](CCCNC(=N)N)NC(=O)[C@H](Cc2ccc(O)cc2)NC(=O)[C@H](CCCCN)NC1=O [[Glu4,A1a15,Lys16,Nle21]ShK-amide]	0.168	0.856	0.901	–
CC[C@H](C)[C@@H]1NC(=O)[C@@H](NC(=O)[C@H](CO)NC(=O)[C@@H](N)CCCNC(=N)N)CSSC[C@@H](C(=O)O)NC(=O)[C@H]([C@@H](C)O)NC(=O)CNC(=O)[C@@H]2CSSC[C@@H]3NC(=O)[C@H](CCC(N)=O)NC(=O)[C@H](Cc4ccccc4)NC(=O)[C@H](C)NC(=O)[C@H]([C@@H](C)O)NC(=O)[C@H](CSSC[C@H](NC(=O)[C@H](Cc4ccccc4)NC(=O)[C@H](CO)NC(=O)[C@H](CC(C)C)NC(=O)[C@H](CCCNC(=N)N)NC(=O)[C@H](Cc4ccc(O)cc4)NC(=O)[C@H](CCCCN)NC(=O)[C@H](CCSC)NC(=O)[C@H](CO)NC(=O)[C@H](Cc4c[nH]cn4)NC(=O)[C@H](CCCCN)NC3=O)C(=O)N[C@@H](CCCNC(=N)N)C(=O)N[C@@H](CCCCN)C(=O)N[C@@H]([C@@H](C)O)C(=O)N2)NC(=O)[C@H](CCC(=O)O)NC(=O)[C@H](CO)NC(=O)[C@H](CCCCN)NC(=O)[C@@H]2CCCN2C(=O)[C@H]([C@@H](C)CC)NC(=O)[C@H]([C@@H](C)O)NC(=O)[C@H](CC(=O)O)NC1=O [[Glu11]ShK]	0.969	1.32	–	4.54
CC[C@H](C)[C@@H]1NC(=O)[C@@H](NC(=O)[C@H](CO)NC(=O)[C@@H](N)CCCNC(=N)N)CSSC[C@@H](C(=O)O)NC(=O)[C@H]([C@@H](C)O)NC(=O)CNC(=O)[C@@H]2CSSC[C@@H]3NC(=O)[C@H](CCC(N)=O)NC(=O)[C@H](Cc4ccccc4)NC(=O)[C@H](C)NC(=O)[C@H](CCCCN)NC(=O)[C@H](CSSC[C@H](NC(=O)[C@H](Cc4ccccc4)NC(=O)[C@H](CO)NC(=O)[C@H](CC(C)C)NC(=O)[C@H](CCCNC(=N)N)NC(=O)[C@H](Cc4ccc(O)cc4)NC(=O)[C@H](CCCCN)NC(=O)[C@H](CCSC)NC(=O)[C@H](CO)NC(=O)[C@H](Cc4c[nH]cn4)NC(=O)[C@H](CCCCN)NC3=O)C(=O)N[C@@H](CCCNC(=N)N)C(=O)N[C@@H](CCCCN)C(=O)N[C@@H]([C@@H](C)O)C(=O)N2)NC(=O)[C@H](CCCNC(=N)N)NC(=O)[C@H](CO)NC(=O)[C@H](CCCCN)NC(=O)[C@@H]2CCCN2C(=O)[C@H]([C@@H](C)CC)NC(=O)[C@H]([C@@H](C)O)NC(=O)[C@H](CC(=O)O)NC1=O [[Lys13]ShK]	0.157	0.257	0.363	–
CC[C@H](C)[C@@H]1NC(=O)[C@@H](NC(=O)[C@H](CO)NC(=O)[C@@H](N)CCCNC(=N)N)CSSC[C@@H](C(N)=O)NC(=O)[C@H]([C@@H](C)O)NC(=O)CNC(=O)[C@@H]2CSSC[C@@H]3NC(=O)[C@H](CCCCN)NC(=O)[C@H](Cc4ccccc4)NC(=O)[C@H](C)NC(=O)[C@H]([C@@H](C)O)NC(=O)[C@H](CSSC[C@H](NC(=O)[C@H](Cc4ccccc4)NC(=O)[C@H](CO)NC(=O)[C@H](CC(C)C)NC(=O)[C@H](CCCNC(=N)N)NC(=O)[C@H](Cc4ccc(O)cc4)NC(=O)[C@H](CCCCN)NC(=O)[C@H]([C@@H](C)O)NC(=O)[C@H](CO)NC(=O)[C@H](Cc4c[nH]cn4)NC(=O)[C@H](CCCCN)NC3=O)C(=O)N[C@@H](CCCNC(=N)N)C(=O)N[C@@H](CCCCN)C(=O)N[C@@H]([C@@H](C)O)C(=O)N2)NC(=O)[C@H](CCCNC(=N)N)NC(=O)[C@H](CO)NC(=O)[C@H](CCCCN)NC(=O)[C@@H]2CCCN2C(=O)[C@H]([C@@H](C)CC)NC(=O)[C@H]([C@@H](C)O)NC(=O)[C@H](CC(=O)O)NC1=O [[Lys16, Thr21]ShK-amide]	0.058	1.55	2.98	–
CCCC[C@@H]1NC(=O)[C@H](CO)NC(=O)[C@H](Cc2c[nH]cn2)NC(=O)[C@H](CCCCN)NC(=O)[C@@H]2CSSC[C@@H]3NC(=O)[C@H]([C@@H](C)O)NC(=O)[C@H](CCCNC(=N)N)NC(=O)[C@H](CCCNC(=N)N)NC(=O)[C@H](CSSC[C@H](NC(=O)[C@H](CCCNC(=N)N)NC(=O)[C@H](CO)NC(=O)[C@H](CCCCN)NC(=O)[C@@H]4CCCN4C(=O)[C@H]([C@@H](C)CC)NC(=O)[C@H]([C@@H](C)O)NC(=O)[C@H](CC(=O)O)NC(=O)[C@H]([C@@H](C)CC)NC(=O)[C@@H](NC(=O)[C@H](CO)NC(=O)[C@@H](N)CCCNC(=N)N)CSSC[C@@H](C(N)=O)NC(=O)[C@H]([C@@H](C)O)NC(=O)CNC3=O)C(=O)N[C@@H]([C@@H](C)O)C(=O)N[C@@H](C)C(=O)N[C@@H](C)C(=O)N[C@@H](CCCCN)C(=O)N2)NC(=O)[C@H](Cc2ccccc2)NC(=O)[C@H](CO)NC(=O)[C@H](CC(C)C)NC(=O)[C@H](CCCNC(=N)N)NC(=O)[C@H](Cc2ccc(O)cc2)NC(=O)[C@H](CCCCN)NC1=O [[Ala15, Lys16, Nle21,Arg30]ShK-amide]	0.329	1.35	1.71	–
CC[C@H](C)[C@@H]1NC(=O)[C@@H](NC(=O)[C@H](CO)NC(=O)[C@@H](N)CCCNC(=N)N)CSSC[C@@H](C(=O)O)NC(=O)[C@H]([C@@H](C)O)NC(=O)CNC(=O)[C@@H]2CSSC[C@@H]3NC(=O)[C@H](CCC(N)=O)NC(=O)[C@H](Cc4ccccc4)NC(=O)[C@H](C)NC(=O)[C@H]([C@@H](C)O)NC(=O)[C@H](CSSC[C@H](NC(=O)[C@H](Cc4ccccc4)NC(=O)[C@H](CO)NC(=O)[C@H](CC(C)C)NC(=O)[C@H](CCCNC(=N)N)NC(=O)[C@H](C)NC(=O)[C@H](CCCCN)NC(=O)[C@H](CCSC)NC(=O)[C@H](CO)NC(=O)[C@H](Cc4c[nH]cn4)NC(=O)[C@H](CCCCN)NC3=O)C(=O)N[C@@H](CCCNC(=N)N)C(=O)N[C@@H](CCCCN)C(=O)N[C@@H]([C@@H](C)O)C(=O)N2)NC(=O)[C@H](CCCNC(=N)N)NC(=O)[C@H](CO)NC(=O)[C@H](CCCCN)NC(=O)[C@@H]2CCCN2C(=O)[C@H]([C@@H](C)CC)NC(=O)[C@H]([C@@H](C)O)NC(=O)[C@H](CC(=O)O)NC1=O [Tyr23(A)]	0.621	3.75	5.44	–

Reference: US20120121591A1 (priority 2009, published 2012)
